Results taken from patent publication US20090192158A1, “Methods for Treating or Preventing Neoplasias” (priority 2006, published 2009).

Legend:
[1] = system: human colon tumor cell line; conditions: cited from earlier work
human mPGES-1 = biological target: T1, human mPGES-1 (Homo sapiens, UniProt O14684); assay: Microsomal prostaglandin E synthase assay; type: biochemical; conditions: microsomes of CHO-K1 cells transfected with human mPGES-1; PGE2 by EIA; average of at least n=3; read-out: h-CHO (nM); potency expressed as IC50
T1 construct: made in house; host or cells: CHO-K1 cells, transient transfection; microsomal fraction
T1 sequence (O14684 1-152): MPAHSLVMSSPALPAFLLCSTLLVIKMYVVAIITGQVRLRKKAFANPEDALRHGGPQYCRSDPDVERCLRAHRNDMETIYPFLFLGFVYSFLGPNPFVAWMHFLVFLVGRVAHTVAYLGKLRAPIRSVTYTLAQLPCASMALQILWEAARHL
Protocol: Compounds are tested as inhibitors of prostaglandin E synthase activity in microsomal prostaglandin E synthases, whole cell and in vivo assays. These assays measure prostaglandin E2 (PGE2) synthesis using either Enzymatic Immunoassay (EIA) or mass spectrometry. Cells used for microsomal preparation are CHO-K1 cells transiently transfected with plasmids encoding the human mPGES-1 cDNA. Cells used for cell-based experiments are human A549 (which express human mPGES-1). Guinea pigs are used to test the activity of selected compounds in vivo. In all these assays, 100% activity is defined as the PGE2 production in vehicle-treated samples.
Prostaglandin E synthase microsomal fractions are prepared from CHO-K1 cells transiently transfected with plasmid encoding the human mPGES-1 cDNA. […] The enzyme reactions are performed in 200 mM KPi pH 7.0, 2 mM EDTA and 2.5 mM GSH-reduced form. […] The reaction is terminated by the addition of SnCl2 in 1N HCl (1 mg/ml final).

Compound | PGE2 formation [1] | cell proliferation [1] | IC50 (human mPGES-1) [nM]
CC(C)c1ccc2c(c1)c(SC(C)(C)C)c(CC(C)(C)C(=O)O)n2Cc1ccc(Cl)cc1 [MK-886] | inhibits | inhibits | 
CC(C)(O)C#Cc1ccc2c(c1)c1cc(Cl)ccc1c1[nH]c(-c3c(F)cccc3C#N)nc21 [Example 14, 2-[9-chloro-6-(3-hydroxy-3-methylbutyl-1-yn-1-yl)-1H-phenanthro[9,10-d]imidazol-2-yl]-3-fluorobenzonitrile] |  |  | 1.8
CC(C)(O)c1ccc2c(c1)c1cc(Br)ccc1c1nc(-c3c(C#N)cccc3C#N)[nH]c21 [Example 87, 2-[6-bromo-9-(1-hydroxy-1-methylethyl)-1H-phenanthro[9,10-d]imidazol-2-yl]isophthalonitrile] |  |  | 1.9
N#Cc1cccc(C#N)c1-c1nc2c3ccc(Br)cc3c3cc(Cl)ccc3c2[nH]1 [Example 36, 2-(6-bromo-9-chloro-1H-phenanthro[9,10-d]imidazol-2-yl)isophthalonitrile] |  |  | 1.2
CC(C)(O)c1ccc2c(c1)c1cc(C#CC3CC3)ccc1c1nc(-c3c(C#N)cccc3C#N)[nH]c21 [Example 88, 2-[6-(cyclopropylethynyl)-9-(1-hydroxy-1-methylethyl)-1H-phenanthro[9,10-d]imidazol-2-yl]isophthalonitrile] |  |  | 1.3
